These results are taken from patent publication US20100016371A1, “Indole Compounds” (Glaxo Group Limited, priority 2006, published 2010).

Assay [1] concerns the target T1, human EP3 receptor (Homo sapiens, UniProt P43115).
T1 construct: expressed in transfected cells; host or cells: CHO-K1 cells, pCIN vector
T1 sequence (P43115 1-390): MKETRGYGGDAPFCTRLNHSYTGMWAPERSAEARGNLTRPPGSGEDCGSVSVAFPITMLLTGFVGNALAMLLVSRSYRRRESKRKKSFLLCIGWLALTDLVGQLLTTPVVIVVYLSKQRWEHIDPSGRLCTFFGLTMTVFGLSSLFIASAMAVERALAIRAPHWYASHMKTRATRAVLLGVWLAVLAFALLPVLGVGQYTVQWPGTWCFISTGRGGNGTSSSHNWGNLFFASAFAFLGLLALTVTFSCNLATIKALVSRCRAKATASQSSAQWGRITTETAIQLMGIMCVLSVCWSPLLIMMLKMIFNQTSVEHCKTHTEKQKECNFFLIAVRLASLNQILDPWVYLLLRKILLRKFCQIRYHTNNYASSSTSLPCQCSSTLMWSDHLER
The assay can be described thus: human EP3 calcium mobilisation assay (FLIPR, CHO-K1 cells). The format is cell-based. The note with it: antagonism of PGE2-induced calcium mobilisation, CHO-K1 cells expressing EP3; averages of a number of experiments; read-out: functional pKi (converted). The protocol: (§1) Biological Activity at EP1 and EP3 Receptors
Briefly, the antagonist properties of compounds are assessed by their ability to inhibit the mobilisation of intracellular calcium ([Ca^2+]i) in response to activation of EP1 or EP3 receptors by the natural agonist hormone prostaglandin E2 (PGE2). Increasing concentrations of antagonist reduce the amount of calcium that a given concentration of PGE2 can mobilise. The net effect is to displace the PGE2 concentration-effect curve to higher concentrations of PGE2. The amount of calcium produced is assessed using a calcium-sensitive fluorescent dye such as Fluo-4, AM and a suitable instrument such as a Fluorimetric Imaging Plate Reader (FLIPR). Increasing amounts of [Ca^2+]i produced by receptor activation increase the amount of fluorescence produced by the dye and give rise to an increasing signal. The signal may be detected using the FLIPR instrument and the data generated may be analysed with suitable curve-fitting software. […]
For assay, cells are harvested using a proprietary reagent that dislodges cells such as Versene. Cells are re-suspended in a suitable quantity of fresh culture media for introduction into a 384-well plate. […]
The data so generated may be analysed by means of a computerised curve-fitting routine. […]

Assay [2] has as its target T2, human EP1 receptor (Homo sapiens, UniProt P34995).
T2 construct: expressed in transfected cells; host or cells: CHO-K1 cells, pCIN vector
T2 sequence (P34995 1-402): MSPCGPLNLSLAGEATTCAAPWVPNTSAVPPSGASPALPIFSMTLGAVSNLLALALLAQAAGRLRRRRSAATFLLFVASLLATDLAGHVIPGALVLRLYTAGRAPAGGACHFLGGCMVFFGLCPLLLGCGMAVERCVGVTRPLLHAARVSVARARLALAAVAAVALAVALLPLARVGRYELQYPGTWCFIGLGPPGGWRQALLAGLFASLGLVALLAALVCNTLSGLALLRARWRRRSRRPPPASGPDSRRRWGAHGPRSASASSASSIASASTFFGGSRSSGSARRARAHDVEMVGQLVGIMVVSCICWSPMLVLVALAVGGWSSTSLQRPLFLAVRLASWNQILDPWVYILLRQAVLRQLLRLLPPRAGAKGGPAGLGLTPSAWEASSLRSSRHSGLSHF
The assay can be described thus: human EP1 calcium mobilisation assay (FLIPR, CHO-K1 cells). The format is cell-based. To be noted: antagonism of PGE2-induced calcium mobilisation, CHO-K1 cells expressing EP1; averages of a number of experiments; read-out: functional pKi (converted). The protocol:
as §1
Briefly, the antagonist properties of compounds are assessed by their ability to inhibit the mobilisation of intracellular calcium ([Ca^2+]i) in response to activation of EP1 or EP3 receptors by the natural agonist hormone prostaglandin E2 (PGE2). Increasing concentrations of antagonist reduce the amount of calcium that a given concentration of PGE2 can mobilise. The net effect is to displace the PGE2 concentration-effect curve to higher concentrations of PGE2. The amount of calcium produced is assessed using a calcium-sensitive fluorescent dye such as Fluo-4, AM and a suitable instrument such as a Fluorimetric Imaging Plate Reader (FLIPR). Increasing amounts of [Ca^2+]i produced by receptor activation increase the amount of fluorescence produced by the dye and give rise to an increasing signal. The signal may be detected using the FLIPR instrument and the data generated may be analysed with suitable curve-fitting software.
The human EP1 or EP3 calcium mobilisation assay (hereafter referred to as ‘the calcium assay’) utilises Chinese hamster ovary-K1 (CHO-K1) cells into which a stable (pCIN; BioTechniques 20(1996): 102-110) vector containing either EP1 or EP3 cDNA has previously been transfected. Cells are cultured in suitable flasks containing culture medium such as DMEM:F-12 supplemented with 10% v/v foetal calf serum, 2 mM L-glutamine, 0.25 mg/ml geneticin, 100 μM flurbiprofen and 10 μg/ml puromycin.
For assay, cells are harvested using a proprietary reagent that dislodges cells such as Versene. Cells are re-suspended in a suitable quantity of fresh culture media for introduction into a 384-well plate. Following incubation for 24 hours at 37° C. the culture media is replaced with a medium containing Fluo-4 and the detergent pluronic acid, and a further incubation takes place. Concentrations of compounds are then added to the plate in order to construct concentration-effect curves. This may be performed on the FLIPR in order to assess the agonist properties of the compounds. Concentrations of PGE2 are then added to the plate in order to assess the antagonist properties of the compounds.
The data so generated may be analysed by means of a computerised curve-fitting routine. The concentration of compound that elicits a half-maximal inhibition of the calcium mobilisation induced by PGE2 (pIC50) may then be estimated.
(In general: Calcium assays in cells follow changes in intracellular calcium, usually with a dye or a luminescent sensor.)

On to `CCc1cn(-c2nc(C(=O)O)cs2)c2cc(Cl)ccc12` [Example 20, 2-(6-Chloro-3-ethyl-1H-indol-1-yl)-1,3-thiazole-4-carboxylic acid], for which the values for the Ki in assay [1] and in assay [2] were at least 2000 nM and at most 100 nM, respectively.
